{"source": "patent US20210401880A1", "about": "“Pharmaceutical Composition For Preventing Or Treating Obesity, Containing CYCLO(HIS-PRO) As Active Ingredient” (Novmetapharma Co., Ltd., priority 2018, published 2021)", "type_in_all_cases": "in vivo, human", "key": {"[1]": {"test_system": "glycated hemoglobin (HbA1c)", "experiment": "Clinical trial: change in concentration of glycated hemoglobin (HbA1c) over 12 weeks", "description": "(§1) We conducted a clinical trial designed as randomized, placebo-controlled, double-blind, and two-way crossover on drug interaction in patients with type 2 diabetes mellitus. The clinical trial was conducted for 149 patients over a total of 16 weeks, in which the screening period was 2 weeks, the treatment period was 12 weeks, and the period of the evaluation of safety and follow-up was 2 weeks.\n(§2) In the screening stage, 64 subjects were selected from 149 participants, and the subjects who met the selection criteria were fasted for 2 hours before and after breakfast each day and subjected to a 2-week evaluation process of measuring and recording blood glucose levels. In the treatment stage, capsules containing placebo or CHP with different doses were randomly administered to 64 selected subjects once a day for 12 consecutive weeks.\n(§3) In the above experiment, a capsule containing CHP with a different dose or a placebo corresponding thereto was used, and each subject received a two-week dose (18 capsules=14+4) at one visit and was instructed to take 1 capsule before bedtime every day. In this case, the anti-diabetic drugs and other prescribed drugs currently being used were continuously taken. Each subject was assigned at the same rate as follows and administered with a placebo or a compound with a different dose, respectively. • Administration Group A: 3 mg of CHP+23 mg of zinc—16 subjects • Administration Group B: 9 mg of CHP+23 mg of zinc—16 subjects • Administration Group C: 15 mg of CHP+23 mg of zinc—16 subjects • Administration Group D: placebo (control)—16 subjects\nThe present inventors observed the change in concentration of HbA1c during the 12-week dosing period. Since the blood glucose level measured at one time point can change due to various factors, the change in glycated hemoglobin (HbA1c) was checked for the purpose of determining the pattern of long-term glycemic control, and the results are shown in Table 1 and FIG. 1."}, "[2]": {"experiment": "Clinical trial: change in body weight over 12 weeks", "description": "as §1, §2, §3\nThe present inventors observed the change in body weight of subjects through the 12-week experiment, and the results are shown in Table 2 and FIG. 2."}, "[3]": {"experiment": "Clinical trial: improvement of body mass index (BMI)", "description": "as §1, §2, §3\n(§4) The present inventors confirmed the improvement of body mass index (BMI) and the improvement of leptin resistance, and the results are shown in Tables 3 and 4."}, "leptin": {"test_system": "leptin", "experiment": "Clinical trial: plasma leptin level (leptin resistance)", "description": "as §1, §2, §3, §4\nLeptin is an appetite suppressing protein secreted from adipose cells, and is known as a hormone to act on the brain after being secreted from adipose tissue to suppress appetite and activate metabolism in the body, thereby reducing body weight. In the case of humans, the more obese people (the more adipose tissue), the higher the concentration of leptin in the blood. This indicates the resistance to leptin action."}, "[4]": {"test_system": "patients with type 2 diabetes mellitus", "experiment": "Clinical trial: evaluation of safety", "settings": "CHP administration groups (3, 9, 15 mg of CHP+23 mg of zinc once a day, 12 weeks) vs placebo", "description": "as §1, §2\nIn the above experiment, a capsule containing CHP with a different dose or a placebo corresponding thereto was used, and each subject received a two-week dose (18 capsules=14+4) at one visit and was instructed to take 1 capsule before bedtime every day. In this case, the anti-diabetic drugs and other prescribed drugs currently being used were continuously taken. […]"}, "[5]": {"settings": "Administration Group A: 3 mg of CHP+23 mg of zinc once a day"}, "[6]": {"settings": "Administration Group A: 3 mg of CHP+23 mg of zinc once a day, Week 12"}, "[7]": {"settings": "Administration Group B: 9 mg of CHP+23 mg of zinc once a day"}, "[8]": {"settings": "Administration Group B: 9 mg of CHP+23 mg of zinc once a day, Baseline (Week 0)"}, "[9]": {"settings": "Administration Group B: 9 mg of CHP+23 mg of zinc once a day, Week 12"}, "[10]": {"settings": "Administration Group C: 15 mg of CHP+23 mg of zinc once a day"}, "[11]": {"settings": "Administration Group C: 15 mg of CHP+23 mg of zinc once a day, Baseline (Week 0)"}, "[12]": {"settings": "Administration Group C: 15 mg of CHP+23 mg of zinc once a day, Week 12"}, "[13]": {"settings": "all patient groups receiving CHP (3, 9, 15 mg+23 mg of zinc), 12 weeks"}, "[14]": {"settings": "Administration Group A: 3 mg of CHP+23 mg of zinc once a day, Baseline (Week 0)"}}}
{"smiles": "O=C1NC(Cc2c[nH]cn2)C(=O)N2CCCC12", "note": "(centres unmarked) [CHP, cyclo(his-pro)]", "values": [{"measurement": "HbA1c, Change Value (From Week 0 to Week 12), Average", "setting": "[1]; [5]", "value": "−0.21", "unit": "%"}, {"measurement": "level of HbA1c at week 12 versus Administration Group D (control)", "setting": "[1]; [5]", "value": "lower than that of Administration Group D"}, {"measurement": "HbA1c, Average", "setting": "[1]; Administration Group A: 3 mg of CHP+23 mg of zinc once a day, Baseline (Week 0), type 2 diabetes patients", "value": 8.25, "unit": "%"}, {"measurement": "HbA1c, Average", "setting": "[1]; [6]", "value": 8.04, "unit": "%"}, {"measurement": "HbA1c, Change Value (From Week 0 to Week 12), Average", "setting": "[1]; [7]", "value": "−0.17", "unit": "%"}, {"measurement": "level of HbA1c at week 12 versus Administration Group D (control)", "setting": "[1]; [7]", "value": "lower than that of Administration Group D"}, {"measurement": "HbA1c, Average", "setting": "[1]; [8]", "value": 8.06, "unit": "%"}, {"measurement": "HbA1c, Average", "setting": "[1]; [9]", "value": 7.90, "unit": "%"}, {"measurement": "HbA1c, Change Value (From Week 0 to Week 12), Average", "setting": "[1]; [10]", "value": "−0.43", "unit": "%"}, {"measurement": "level of HbA1c over time (FIG. 1)", "setting": "[1]; [10]", "value": "reduced consistently until week 8"}, {"measurement": "HbA1c, Average", "setting": "[1]; [11]", "value": 8.49, "unit": "%"}, {"measurement": "HbA1c, Average", "setting": "[1]; [12]", "value": 8.08, "unit": "%"}, {"measurement": "level of HbA1c compared to the control", "setting": "[1]; [13]", "value": "reduced compared to the control"}, {"measurement": "Body weight, Change Value (From Week 0 to Week 12), Average", "setting": "[2]; [5]", "value": -0.73, "unit": "kg"}, {"measurement": "Body weight, Average", "setting": "[2]; [14]", "value": 109.11, "unit": "kg"}, {"measurement": "Body weight, Average", "setting": "[2]; [6]", "value": 108.28, "unit": "kg"}, {"measurement": "Body weight, Average", "setting": "[2]; [8]", "value": 103.56, "unit": "kg"}, {"measurement": "Body weight, Average", "setting": "[2]; [9]", "value": 105.19, "unit": "kg"}, {"measurement": "Body weight, Change Value (From Week 0 to Week 12), Average", "setting": "[2]; [10]", "value": -0.92, "unit": "kg"}, {"measurement": "body weight over time (FIG. 2)", "setting": "[2]; [10]", "value": "reduced consistently until week 12"}, {"measurement": "Body weight, Average", "setting": "[2]; [11]", "value": 103.94, "unit": "kg"}, {"measurement": "Body weight, Average", "setting": "[2]; [12]", "value": 104.12, "unit": "kg"}, {"measurement": "weight gain / body weight compared to the control", "setting": "[2]; [13]", "value": "less than the control, or the body weight was reduced"}, {"measurement": "Body mass index (BMI), Change Value (From Week 0 to Week 12), Average", "setting": "[3]; [5]", "value": "−0.27", "unit": "kg/m^2"}, {"measurement": "Body mass index (BMI), Average", "setting": "[3]; [14]", "value": 37.18, "unit": "kg/m^2"}, {"measurement": "Body mass index (BMI), Average", "setting": "[3]; [6]", "value": 36.45, "unit": "kg/m^2"}, {"measurement": "Body mass index (BMI), Change Value (From Week 0 to Week 12), Average", "setting": "[3]; [7]", "value": 0.16, "unit": "kg/m^2"}, {"measurement": "Body mass index (BMI), Average", "setting": "[3]; [8]", "value": 36.29, "unit": "kg/m^2"}, {"measurement": "Body mass index (BMI), Average", "setting": "[3]; [9]", "value": 36.59, "unit": "kg/m^2"}, {"measurement": "Body mass index (BMI), Change Value (From Week 0 to Week 12), Average", "setting": "[3]; [10]", "value": "−0.28", "unit": "kg/m^2"}, {"measurement": "Body mass index (BMI), Average", "setting": "[3]; [11]", "value": 37.23, "unit": "kg/m^2"}, {"measurement": "Body mass index (BMI), Average", "setting": "[3]; [12]", "value": 37.48, "unit": "kg/m^2"}, {"measurement": "Plasma leptin level, Change Value (From Week 0 to Week 12), Average", "setting": "leptin; [5]", "value": 0.59}, {"measurement": "Plasma leptin level, Average", "setting": "leptin; [14]", "value": 10.93}, {"measurement": "Plasma leptin level, Average", "setting": "leptin; [6]", "value": 9.66}, {"measurement": "Plasma leptin level, Change Value (From Week 0 to Week 12), Average", "setting": "leptin; [7]", "value": "−3.42"}, {"measurement": "plasma leptin level at week 12 compared to the reference value", "setting": "leptin; [7]", "value": "reduced to a statistically significant level"}, {"measurement": "Plasma leptin level, Average", "setting": "leptin; [8]", "value": 19.85}, {"measurement": "Plasma leptin level, Average", "setting": "leptin; [9]", "value": 9.90}, {"measurement": "Plasma leptin level, Change Value (From Week 0 to Week 12), Average", "setting": "leptin; [10]", "value": "−3.39"}, {"measurement": "plasma leptin level at week 12 compared to the reference value", "setting": "leptin; [10]", "value": "reduced to a statistically significant level"}, {"measurement": "Plasma leptin level, Average", "setting": "leptin; [11]", "value": 12.93}, {"measurement": "Plasma leptin level, Average", "setting": "leptin; [12]", "value": 10.59}, {"measurement": "side effects (evaluation of safety)", "setting": "[4]", "value": "mild and moderate side effects that are not related to the CHP were observed"}]}
